Measurements reported in article PMC6600574 (Molecules, 2019).
Where two headings read alike, the source gives them in different places.

How the values were obtained:
[1] = molecular target: T1, CYP 1A2 (liver microsomes) (Homo sapiens, UniProt P05177); test: Inhibition of hepatic microsome-catalyzed CYP oxidation; format: in vitro ADME; conditions: CYP 1A2, substrate OCA349, liver microsomes; read-out: Microsomal IC50 (µM) with 95% Confidence Intervals
T1 construct: from tissue; host or cells: human liver microsomes
Procedure: (§1) Incubations were carried out in a total volume of 100 µl of 100 mM Tris-HCl buffer (pH 7.4) in all black, flat-bottom Costar 96-well plates (Corning Incorporated, Corning, NY, USA). […] The samples were then preincubated at 37 °C for 10 min. The reactions were initiated by the addition of NADPH, and 0–10 µM 7-hydroxycoumarin was used as the standard. The fluorescent signal was measured with a Victor^2 1420 multilabel plate counter (PerkinElmer Lifesciences Wallac, Turku, Finland) with excitation and emission wavelengths of 405 and 460 nm, respectively. Fluorescence was monitored every 2 min for 40 min from where the concentration was calculated at the various time points. From these, oxidation rates (µM/min) and the relative remaining activity of the sample at different concentrations were calculated. The data were fit to sigmoidal dose-response curves with nonlinear regression, and IC50 values (the concentration at which the sample reduced the metabolism of the CYP substrate by 50%) were determined. […] This was analyzed using nonlinear equations in Graph Pad Prism, which produced IC50 values and its 95% confidence interval as the results.

[2] = molecular target: T2, CYP 2D6 (liver microsomes) (Homo sapiens, UniProt P10635); test: as above; format: in vitro ADME; conditions: CYP 2D6, substrate TFD023, liver microsomes; read-out: Microsomal IC50 (µM) with 95% Confidence Intervals
T2 construct: from tissue; host or cells: human liver microsomes
Procedure: as §1

[3] = molecular target: T3, CYP 2A6 (liver microsomes) (Homo sapiens, UniProt P11509); test: as above; format: in vitro ADME; conditions: CYP 2A6, substrate coumarin, read-out: Microsomal IC50 (µM) with 95% Confidence Intervals
T3 construct: from tissue; host or cells: human liver microsomes
T3 sequence (P11509 1-494): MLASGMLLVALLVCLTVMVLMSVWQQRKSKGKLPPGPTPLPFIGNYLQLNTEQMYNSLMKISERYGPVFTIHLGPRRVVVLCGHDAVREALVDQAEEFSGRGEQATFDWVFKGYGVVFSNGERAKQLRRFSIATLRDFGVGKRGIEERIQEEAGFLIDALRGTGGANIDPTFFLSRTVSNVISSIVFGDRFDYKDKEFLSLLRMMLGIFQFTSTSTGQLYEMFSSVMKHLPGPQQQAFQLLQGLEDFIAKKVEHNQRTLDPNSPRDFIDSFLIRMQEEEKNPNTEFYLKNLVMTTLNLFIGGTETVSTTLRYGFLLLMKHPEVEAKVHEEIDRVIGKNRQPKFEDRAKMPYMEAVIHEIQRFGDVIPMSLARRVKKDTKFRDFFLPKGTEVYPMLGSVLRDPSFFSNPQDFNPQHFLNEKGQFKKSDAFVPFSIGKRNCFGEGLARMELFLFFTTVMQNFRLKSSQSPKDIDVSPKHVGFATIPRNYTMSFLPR
Procedure: as §1

[4] = molecular target: T4, CYP 2C19 (liver microsomes) (Homo sapiens, UniProt P33261); test: as above; format: in vitro ADME; conditions: CYP 2C19, substrate TFD032, liver microsomes
T4 construct: from tissue; host or cells: human liver microsomes
Procedure: as §1

[5] = molecular target: T5, CYP 3A4 (liver microsomes) (Homo sapiens, UniProt P08684); test: as above; format: in vitro ADME; conditions: CYP 3A4, substrate OCA369, liver microsomes; read-out: Microsomal IC50 (µM) with 95% Confidence Intervals
T5 construct: from tissue; host or cells: human liver microsomes
Procedure: as §1

[6] = Nitric oxide scavenging assay (nitroprusside, Griess reagent); format: biochemical; conditions: 10 mM nitroprusside, 90 min, read-out: NO IC50
Procedure: Ethanol (10%) was used as a blank. Nitroprusside (50 μL) at a concentration of 10 mM was added to all the wells. The plates were incubated for 90 min at room temperature. After incubation, Griess reagent (100 μL) was added to all the wells, except for the color controls (negative controls) where instead distilled water was added. The absorbances were read at a wavelength of 546 nm using a BIO-TEK Power-Wave XS multiplate reader. From the absorbances an IC50 value was determined.

[7] = design: method as in Chen et al. (2012) [15]; conditions: DPPH in methanol; ref Chen et al. (2012) [15]; cited from earlier work
CYP1B1 = molecular target: T6, CYP1B1 (Homo sapiens, UniProt Q16678); test: Inhibition of recombinant CYP oxidation (fluorescent coumarin substrate); format: in vitro ADME; conditions: read-out: Recombinant CYP IC50 (µM) with 95% confidence intervals
T6 construct: purchased BD Biosciences Discovery Labware (Bedford, MA, USA)
T6 sequence (Q16678 1-543): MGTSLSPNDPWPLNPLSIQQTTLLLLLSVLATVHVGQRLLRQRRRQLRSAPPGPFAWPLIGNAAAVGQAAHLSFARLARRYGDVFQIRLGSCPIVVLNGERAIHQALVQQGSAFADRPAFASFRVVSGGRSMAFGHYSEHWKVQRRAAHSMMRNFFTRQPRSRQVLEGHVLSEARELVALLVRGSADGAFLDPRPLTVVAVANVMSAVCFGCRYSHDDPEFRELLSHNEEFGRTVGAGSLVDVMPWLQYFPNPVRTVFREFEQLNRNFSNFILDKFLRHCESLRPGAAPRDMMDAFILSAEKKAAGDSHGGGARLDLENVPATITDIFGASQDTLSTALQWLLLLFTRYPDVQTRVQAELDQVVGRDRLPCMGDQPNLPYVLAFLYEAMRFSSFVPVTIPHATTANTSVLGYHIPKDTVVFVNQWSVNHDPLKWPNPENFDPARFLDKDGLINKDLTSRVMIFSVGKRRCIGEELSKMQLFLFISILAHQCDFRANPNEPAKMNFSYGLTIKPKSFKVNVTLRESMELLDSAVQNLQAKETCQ
Procedure: as §1

PBMCs = test system: PBMCs; design: method as in Sipahi et al. (2016) [21]; conditions: aqueous extract of verbascoside; ref Sipahi et al. (2016) [21]; read-out: PBMC cellular toxicity IC50; cited from earlier work
[8] = design: method as in Koo et al. (2006) [16]; conditions: ref Koo et al. (2006) [16]; read-out: DPPH radical scavenging EC50; cited from earlier work
HepG2 cell line = test system: HepG2 cell line; design: method as in Etemad et al. (2015) [19]; conditions: after 24 and 72 h, highest concentration tested; ref Etemad et al. (2015) [19]; read-out: HepG2 cellular toxicity IC50; cited from earlier work

T4 sequence (P33261 whole entry): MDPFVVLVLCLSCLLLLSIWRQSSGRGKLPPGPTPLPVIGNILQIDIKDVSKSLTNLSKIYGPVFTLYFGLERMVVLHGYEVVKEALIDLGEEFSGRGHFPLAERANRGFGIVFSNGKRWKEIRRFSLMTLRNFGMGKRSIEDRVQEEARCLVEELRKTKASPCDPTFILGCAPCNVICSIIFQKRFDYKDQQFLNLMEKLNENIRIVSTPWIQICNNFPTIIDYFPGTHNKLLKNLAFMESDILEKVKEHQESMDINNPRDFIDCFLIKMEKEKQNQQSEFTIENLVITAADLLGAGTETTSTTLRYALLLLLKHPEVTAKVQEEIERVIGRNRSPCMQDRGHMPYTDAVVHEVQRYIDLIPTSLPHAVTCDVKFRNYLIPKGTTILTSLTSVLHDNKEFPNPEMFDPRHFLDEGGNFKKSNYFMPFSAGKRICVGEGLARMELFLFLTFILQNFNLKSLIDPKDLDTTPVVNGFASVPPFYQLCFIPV
T5 sequence (P08684 whole entry): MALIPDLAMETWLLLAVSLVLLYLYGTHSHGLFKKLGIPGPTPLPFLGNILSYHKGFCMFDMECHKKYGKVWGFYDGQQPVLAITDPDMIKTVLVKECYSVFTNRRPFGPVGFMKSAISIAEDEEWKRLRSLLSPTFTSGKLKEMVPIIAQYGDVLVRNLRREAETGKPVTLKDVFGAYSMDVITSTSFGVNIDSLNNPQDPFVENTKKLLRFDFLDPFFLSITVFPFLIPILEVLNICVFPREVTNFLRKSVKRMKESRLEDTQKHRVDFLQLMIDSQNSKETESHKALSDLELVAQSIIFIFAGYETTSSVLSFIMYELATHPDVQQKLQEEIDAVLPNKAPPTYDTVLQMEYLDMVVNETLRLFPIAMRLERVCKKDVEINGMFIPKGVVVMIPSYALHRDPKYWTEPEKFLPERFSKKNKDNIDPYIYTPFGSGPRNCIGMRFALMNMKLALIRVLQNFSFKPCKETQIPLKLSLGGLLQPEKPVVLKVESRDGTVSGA
T1 sequence (P05177 whole entry): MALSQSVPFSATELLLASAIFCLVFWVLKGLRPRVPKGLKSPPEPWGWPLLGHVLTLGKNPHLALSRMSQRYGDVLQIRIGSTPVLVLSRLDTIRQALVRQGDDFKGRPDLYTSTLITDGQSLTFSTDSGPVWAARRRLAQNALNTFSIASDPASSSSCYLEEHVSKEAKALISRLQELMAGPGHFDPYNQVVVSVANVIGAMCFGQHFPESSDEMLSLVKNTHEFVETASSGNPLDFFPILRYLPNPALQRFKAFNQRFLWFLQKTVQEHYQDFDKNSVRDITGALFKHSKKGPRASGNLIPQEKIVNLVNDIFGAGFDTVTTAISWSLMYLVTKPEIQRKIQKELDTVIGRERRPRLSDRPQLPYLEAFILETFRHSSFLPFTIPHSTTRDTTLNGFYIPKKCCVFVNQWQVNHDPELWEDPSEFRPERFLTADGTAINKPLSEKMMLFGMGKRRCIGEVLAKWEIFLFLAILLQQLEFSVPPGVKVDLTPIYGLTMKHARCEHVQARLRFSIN
T2 sequence (P10635 whole entry): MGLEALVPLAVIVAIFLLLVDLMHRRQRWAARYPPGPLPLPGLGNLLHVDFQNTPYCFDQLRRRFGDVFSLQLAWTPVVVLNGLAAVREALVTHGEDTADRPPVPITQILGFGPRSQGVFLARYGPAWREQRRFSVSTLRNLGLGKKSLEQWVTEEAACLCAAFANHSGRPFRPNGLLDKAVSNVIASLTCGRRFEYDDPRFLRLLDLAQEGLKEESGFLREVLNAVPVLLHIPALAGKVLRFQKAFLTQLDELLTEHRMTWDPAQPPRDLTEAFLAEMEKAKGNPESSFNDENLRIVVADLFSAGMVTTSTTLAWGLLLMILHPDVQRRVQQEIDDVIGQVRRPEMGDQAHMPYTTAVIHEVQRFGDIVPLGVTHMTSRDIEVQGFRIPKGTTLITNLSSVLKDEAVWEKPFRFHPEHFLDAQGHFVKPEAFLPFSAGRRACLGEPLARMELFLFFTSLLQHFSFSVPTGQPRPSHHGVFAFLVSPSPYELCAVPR

- IC50 [1]: 24 µM
- IC50 [2]: 96 µM
- IC50 [3]: 135 µM
- Microsomal IC50 (µM) with 95% Confidence Intervals [4]: Stimulation ^c
- Microsomal IC50 (µM) with 95% Confidence Intervals ([4]; listed as verbascoside): weak ability to stimulate
- IC50 [5]: 76 µM
- IC50 [6]: 382 ± 4.15 µM
- IC50 at 40 min (CYP1B1; human, recombinant CYP1B1, pH 7.4, probe TFD008 1 (3-(4-phenylacetate)-6-chlorocoumarin), 10 µM): > 50 µM
- IC50 (CYP1B1): 86 µM
Compound: C[C@@H]1O[C@@H](O[C@@H]2[C@@H](O)[C@H](OCCc3ccc(O)c(O)c3)O[C@H](CO)[C@H]2OC(=O)/C=C/c2ccc(O)c(O)c2)[C@H](O)[C@H](O)[C@H]1O [Verbascoside]
- IC50 [7]: 11.4 µM
- IC50 (PBMCs): 384 µM
- EC50 [8]: 1.28 µM
- IC50 (HepG2 cell line): > 400 µM
